The data set in a line: pKa measurement by titration (AT-210 device, neutralization middle point). Format: physicochemical. Conditions: —NHSO2— dissociation group, 25° C., THF/H2O=6/4. As for the experimental part:
The measurement of the pKa value in the present invention will be described below. […] 20 mL of H2O were then added to completely dissolve the material. Subsequently, 0.25 mL of an aqueous 0.2 N hydrochloric acid solution was added, and the resultant solution was stirred. An aqueous 0.2 N NaOH solution was dropped into this solution, and the pKa value was obtained from the neutralization middle point. All pKa values in the present invention were obtained under the above measurement conditions.

Take `CCCCCCCCCCCCCCCCCCOc1ccc(C(C)(C)C)cc1S(=O)(=O)NC(C)c1n[nH]c2cc(C(C)(C)C)nn12` (centres unmarked) [Compound G-1]: the pKa value entry was “more than 12”.
For the molecule `CCCCCCCCCCCCCCCC(C(=O)O)C(=O)Nc1cccc(C(=O)Nc2ccc(CCCc3n[nH]c4cc(C(C)(C)C)nn34)cc2)c1` (centres unmarked) [Compound G-2], the pKa value entry is “more than 12”.
For `CCCCCCCCOc1ccc(C(C)(C)CC(C)(C)C)cc1S(=O)(=O)Nc1cc(S(=O)(=O)Nc2c(C)cc(C)c(-c3n[nH]c4cc(CC)nn34)c2C)ccc1Cl` [Compound G-3], the pKa value result is “more than 12”.
For `CCCCCCCCOc1ccc(NS(=O)(=O)c2cc(C(C)(C)CC(C)(C)C)ccc2OCCOc2ccc(C)cc2)cc1S(=O)(=O)NC(C)c1n[nH]c2cc(C(C)(C)C)nn12` (centres unmarked) [Compound G-4], the pKa value entry was “more than 12”.
With `CCCCCCCCOc1ccc(C(C)(C)CC(C)(C)C)cc1S(=O)(=O)Nc1ccc(OCCOC)c(S(=O)(=O)NC(C)(C)c2n[nH]c3c(Cl)c(C(C)(C)C)nn23)c1` [Compound G-5], the pKa value result is given as “more than 12”.
`CCCCCCCCOc1ccc(NS(=O)(=O)c2cc(C(C)(C)CC(C)(C)C)ccc2OCCCCCCCC)cc1S(=O)(=O)NCC(C)c1n[nH]c2c(Cl)c(C(C)(C)C)nn12` (centres unmarked) [Compound G-6]: the pKa value result is reported as “more than 12”.
Regarding `CCCCCCCCCCCCC(Oc1ccc(NS(=O)(=O)c2ccc(S(N)(=O)=O)cc2)cc1)c1n[nH]c2c(Cl)c(C)nn12` (centres unmarked) [Compound G-7], the pKa value entry is reported as “more than 12”.
As for `CCCCCCCCOc1ccc(NS(=O)(=O)c2cc(C(C)(C)CC(C)(C)C)ccc2OCCCCCCCC)cc1S(=O)(=O)NCC(C)c1n[nH]c2cc(CC)nn12` (centres unmarked) [Compound G-9], the pKa value entry was “more than 12”.

The record behind these values is patent US6468729B2, “Silver halide photographic light-sensitive material” (Fuji Photo Film Co., Ltd., priority 2000, dated 2002).
